SMILES strings stand for the structures.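 A five-concentration, 48-hour dose response in 96-well plates underlies each endpoint, interpolated linearly between surrounding concentrations. Abbreviation: GI50, concentration required for 50% inhibition of growth. TGI denotes the concentration required for complete inhibition of growth.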

The record followed here is PubChem BioAssay (NCI).

The subject of this assay is MDA-MB-468 breast. The assay is described as follows: growth of human tumour cells (NCI), 48 h.
For `Clc1nc(Oc2ccccc2)nc(-c2cn(-c3ccccc3)c3ccccc23)n1`, the GI50 was 2860 nM and the TGI was determined as 9940 nM.
Consider `CC(C)c1ccc(Cc2cnc(NC(=O)c3cc(Br)cs3)s2)cc1`, for which the GI50 was 1300 nM and the TGI was 8670 nM.
For `COc1cc2nc(-c3ccc(C(F)(F)F)cc3)cc(OCCCN3CCOCC3)c2cc1OC`, in that order: 1240 nM and 5710 nM.
For `CCCCNc1nc(NC(C)(C)C)nc(NC(C)(C)C)n1`, in that order: 1490 nM and 34800 nM.
In the case of `Cc1ccc(C(=O)c2oc3ccc4c(C)cc(=O)oc4c3c2C)cc1`, the GI50 is 12100 nM and the TGI is over 100000 nM.
On to `O=[N+]([O-])c1ccc2[nH]cc(-c3c4ccsc4cc4[nH]c5ccc([N+](=O)[O-])cc5c34)c2c1`, for which the GI50 is 805 nM and the TGI was found to be 2470 nM.
The like results for `O=C(Nc1cccc(C(F)(F)F)c1)c1cc(-c2ccc(F)cc2F)ccc1O` were, in that order, 2220 nM and 6840 nM.
The like results for `CN1CCN(Cc2ccc(NC(=O)c3cncc(C#Cc4cnc(N)c5ccc(F)cc45)c3)cc2C(F)(F)F)CC1` were, in that order, 1770 nM and 6670 nM.
For `CC[N+](CC)=c1ccc2nc3c(cc(N)c4ccccc43)oc-2c1`, in that order: 21.9 nM and 132 nM.
Regarding `C=CCn1c(C)nc2cc(Nc3nc(Nc4ccc5nc(C)n(CC=C)c5c4)c4ccccc4n3)ccc21`, the GI50 was 203 nM and the TGI came to 521 nM.
For `Nc1c(C(=O)c2ccccc2)sc2nc(-c3cccs3)ccc12`, in that order: 200 nM and 910 nM.
For `CC1(C)C=CC[C@]2(C)[C@H]3CC[C@@H]4[C@H]5[C@H](C(=O)/C=C/c6cccnc6)CC[C@]5(CO)CC[C@@]4(C)[C@]3(C)CC[C@@H]12`, the GI50 was 1340 nM and the TGI worked out at 2880 nM.
For `CC1=CSC2=NC(c3ccc(Cl)c(Cl)c3)=CC(c3ccc(Cl)cc3)N12` (stereo not drawn), in that order: over 100000 nM and over 100000 nM.
For `CCOc1ccc(/C=C/C(=O)c2ccccc2)cc1`, in that order: 17300 nM and 34100 nM.
The like results for `O=C(Nc1ccc(Cl)cc1)Nc1ccc(Cl)c(Cl)c1` were, in that order, 2610 nM and 11300 nM.
Regarding `CCCCCCC/C=C/[C@H]1O[C@]23C(=O)C[C@@]4(C[C@@H](OC5OC(CO)C(O)C(O)C5O)C[C@@H]4[C@H]2C=C1C)OC3=O` (stereo partly drawn), the GI50 was 4580 nM and the TGI came to 13500 nM.
The like results for `COc1cccc(-c2nc3sccn3c2-c2ccnc(NCCNC(=O)Nc3cccc(C(F)(F)F)c3)n2)c1` were, in that order, 2630 nM and 10400 nM.
The like results for `CC[N+](CCCCCCCCCC[N+](CC)(c1ccccn1)c1ccccn1)(c1ccccn1)c1ccccn1` were, in that order, 206 nM and 1430 nM.
For `Oc1ccc(Br)cc1Sc1cc(Br)ccc1O`, in that order: 4090 nM and 20800 nM.
Consider `O=C(CN1CCOCC1)NNc1ncnc2ccccc12`, for which the GI50 was 3650 nM and the TGI worked out at 15600 nM.
For `COc1cc(-c2cnn(C)c2)ccc1Nc1ncc2ccnc(N[C@@H](C)C(C)(C)C)c2n1`, in that order: over 74700 nM and over 100000 nM.
For `COC(=O)CCC/C=C\C[C@H]1C=CC(=O)/C1=C/C[C@@H](O)CCc1cccc(C(F)(F)F)c1`, in that order: 2010 nM and 5230 nM.
The like results for `COc1ccc(/C=C/c2cc(OC)c(OC)c(OC)c2)cc1NC(=O)/C=C/c1ccc(F)cc1` were, in that order, 1780 nM and over 37500 nM.
Turning to `C=CC(=O)N1CCCC(n2nc(-c3ccc(Oc4ccccc4)cc3)c3c(N)ncnc32)C1` (stereo not drawn), the GI50 is 31.9 nM and the TGI amounted to 600 nM.
The like results for `Cc1cc(/C=C2\SC(=Nc3ccccc3)N(C3CCCC3)C2=O)c(C)n1-c1ccc(Cl)cc1` were, in that order, 48000 nM and over 100000 nM.
The like results for `C#C[C@]1(O)CC[C@H]2[C@@H]3CC=C4c5sc(Nc6cc(Cl)ccn6)nc5CC[C@]4(C)[C@H]3CC[C@@]21C` were, in that order, 2190 nM and 6610 nM.
For `CC1=CC[C@@H]2CC[C@]3(C)[C@H](CC[C@@H]4[C@@]5(C)CCCNC(C)(C)[C@@H]5CC[C@]43C)[C@H]2[C@@H]1C`, in that order: 1680 nM and 3300 nM.
Take `COc1cc(OC)c(/C=C/c2ccc3ccccc3[n+]2C)c(OC)c1`: the GI50 was 161 nM and the TGI came to 763 nM.
The like results for `COc1ccc2c(c1)sc1nc(-c3ccccc3)c(-c3ccsc3)n12` were, in that order, 1980 nM and 5430 nM.
The like results for `COc1cc(-c2nc3ccc(C)cc3[nH]2)ccc1OCC(=O)N=Nc1c(O)[nH]c2ccccc12` were, in that order, 1750 nM and 3340 nM.
For `COc1cc(/C=C/c2cc(C(F)(F)F)[nH]c(=O)n2)ccc1OCc1ccccc1F`, in that order: 2970 nM and 14400 nM.
For the compound `COc1c/c(=C2/C=c3ccccc3=N2)[nH]/c1=C/c1[nH]c(C)cc1C`, the GI50 is 311 nM and the TGI was 1940 nM.
In the case of `N#CCc1nc(C#N)c(N)o1`, the GI50 was over 100000 nM and the TGI is over 100000 nM.
Regarding `CCOC(=O)[C@@H](C)C[C@H](Cc1ccccc1)NC(=O)c1csc([C@@H](C[C@H](C(C)C)N(C)C(=O)[C@@H](NC(=O)[C@H]2C[C@H](O[Si](C)(C)C(C)(C)C)CCN2C)C(C)C)OC(C)=O)n1`, the GI50 was 75.4 nM and the TGI was 5450 nM.
